According to ChEMBL document CHEMBL3826938, “Synthesis and biological evaluation of Oblongifolin C derivatives as c-Met inhibitors” (Bioorg Med Chem, 2016):
The source made the active and inactive calls. No cut-off for these calls is given here.

Tests used:
[1] = Cytotoxicity against human MIAPaCa2 cells assessed as growth inhibition after 72 hrs by MTT assay; settings: MIA PaCa-2, 72 h
A549 = assay: Cytotoxicity against human A549 cells assessed as growth inhibition after 72 hrs by MTT assay; settings: A549, 72 h
HepG2 = assay: Cytotoxicity against human HepG2 cells assessed as growth inhibition after 72 hrs by MTT assay; settings: HepG2, 72 h
HeLa = assay: Cytotoxicity against human HeLa cells assessed as growth inhibition after 72 hrs by MTT assay
[2] = Cytotoxicity against human HCC827 cells assessed as growth inhibition after 72 hrs by MTT assay; settings: HCC827, 72 h
HT-29 = assay: Cytotoxicity against human HT-29 cells assessed as growth inhibition after 72 hrs by MTT assay; settings: HT-29, 72 h
HCC827 = assay: Antimigratory activity against human HCC827 cells at 2.5 to 10 uM after 24 hrs by crystal violet staining based transwell chamber assay; format: functional, cell-based
AGS = assay: Cytotoxicity against human AGS cells assessed as growth inhibition after 72 hrs by MTT assay
[3] = target: Hepatocyte growth factor receptor (Homo sapiens, UniProt P08581); assay: Inhibition of c-MET (unknown origin) by caliper mobility shift assay
[4] = Solubility of compound in water; format: physicochemical; settings: buffer

Hepatocyte growth factor receptor, sequence (P08581 whole entry): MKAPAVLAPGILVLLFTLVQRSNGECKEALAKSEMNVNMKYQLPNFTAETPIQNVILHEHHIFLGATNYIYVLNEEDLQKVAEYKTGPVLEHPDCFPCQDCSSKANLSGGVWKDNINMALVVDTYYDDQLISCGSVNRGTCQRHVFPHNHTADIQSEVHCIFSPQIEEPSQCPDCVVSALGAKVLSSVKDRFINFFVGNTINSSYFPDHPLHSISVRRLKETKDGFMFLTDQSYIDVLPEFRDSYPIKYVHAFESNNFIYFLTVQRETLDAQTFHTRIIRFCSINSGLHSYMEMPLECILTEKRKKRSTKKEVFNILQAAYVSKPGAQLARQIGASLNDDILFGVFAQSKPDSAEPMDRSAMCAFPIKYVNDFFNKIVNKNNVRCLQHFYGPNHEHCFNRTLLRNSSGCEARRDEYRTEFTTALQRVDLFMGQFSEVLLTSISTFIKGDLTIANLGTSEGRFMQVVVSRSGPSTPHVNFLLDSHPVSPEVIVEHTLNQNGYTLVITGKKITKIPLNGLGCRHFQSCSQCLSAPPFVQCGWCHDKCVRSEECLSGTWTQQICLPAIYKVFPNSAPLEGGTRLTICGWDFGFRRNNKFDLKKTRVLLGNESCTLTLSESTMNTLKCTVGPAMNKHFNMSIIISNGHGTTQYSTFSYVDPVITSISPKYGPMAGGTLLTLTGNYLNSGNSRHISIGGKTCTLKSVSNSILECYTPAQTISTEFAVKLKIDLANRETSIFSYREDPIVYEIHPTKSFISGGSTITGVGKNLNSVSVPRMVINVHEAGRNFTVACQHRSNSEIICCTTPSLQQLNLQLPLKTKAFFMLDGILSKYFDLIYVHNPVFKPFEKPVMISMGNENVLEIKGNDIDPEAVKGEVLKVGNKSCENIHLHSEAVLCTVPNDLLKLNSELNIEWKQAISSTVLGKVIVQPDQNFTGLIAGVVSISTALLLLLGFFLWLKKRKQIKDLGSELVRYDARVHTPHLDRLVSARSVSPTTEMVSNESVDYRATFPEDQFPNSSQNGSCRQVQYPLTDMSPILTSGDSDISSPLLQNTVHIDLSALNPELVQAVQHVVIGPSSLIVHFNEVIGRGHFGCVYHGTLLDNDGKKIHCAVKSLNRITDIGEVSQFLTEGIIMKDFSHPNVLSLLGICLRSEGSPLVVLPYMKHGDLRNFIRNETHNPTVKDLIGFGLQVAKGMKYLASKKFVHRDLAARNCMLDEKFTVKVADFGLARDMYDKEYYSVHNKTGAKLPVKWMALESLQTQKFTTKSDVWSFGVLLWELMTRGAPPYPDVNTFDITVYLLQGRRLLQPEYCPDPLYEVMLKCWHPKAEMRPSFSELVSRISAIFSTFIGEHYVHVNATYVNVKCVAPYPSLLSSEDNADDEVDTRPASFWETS

Row | Compound | IC50 [1] [µM] | IC50 (A549) [µM] | IC50 (HepG2) [µM] | IC50 (HeLa) [µM] | IC50 [2] [µM] | IC50 (HT-29) [µM] | Activity (HCC827) | IC50 (AGS) [µM] | IC50 [3] [µM] | solubility [4]
1 | CC(C)=CCC/C(C)=C/C[C@@H]1C[C@]2(CC=C(C)C)C(=O)[C@@](CC=C(C)C)(C(=O)C3=C2OC2C=C(O)C(=O)C=C2C3=O)[C@@]1(C)CCC=C(C)C (some centres not stated) | 9.88 | 13.1 | 14.3 | 10.3 | > 20 | 16.9 | Active | 7.84 |  | 
2 | CC(C)=CCC/C(C)=C/C[C@@H]1C[C@]2(CC=C(C)C)C(=O)[C@@](CC=C(C)C)(C(=O)C(Cc3ccc(O)c(O)c3)=C2O)[C@@]1(C)CCC=C(C)C | > 20 | > 20 | > 20 | > 20 | > 20 | > 20 |  | > 20 | > 20 | 
3 | CC(C)=CCC/C(C)=C/C[C@@H]1C[C@]2(CC=C(C)C)C(=O)[C@@](CC=C(C)C)(C(=O)C(OC(=O)c3ccc(O)c(O)c3)=C2O)[C@@]1(C)CCC=C(C)C | > 20 | 13.1 | > 20 | 15.1 | > 20 | 16.3 |  | 10.2 |  | 
4 | COC(=O)COc1ccc(C(=O)C2=C(O)[C@]3(CC=C(C)C)C[C@@H](C/C=C(\C)CCC=C(C)C)[C@](C)(CCC=C(C)C)[C@](CC=C(C)C)(C2=O)C3=O)cc1OCC(=O)O | > 20 | > 20 | > 20 | > 20 | > 20 | > 20 |  | > 20 |  | soluble
5 | CC(=O)Oc1ccc(C(=O)C2=C(O)[C@]3(CC=C(C)C)C[C@@H](C/C=C(\C)CCC=C(C)C)[C@](C)(CCC=C(C)C)[C@](CC=C(C)C)(C2=O)C3=O)cc1OC(C)=O | > 20 | 16.6 | > 20 | 13.3 | > 20 | 12.2 |  | 15.7 |  | 
6 | CC(C)=CCC/C(C)=C/C[C@@H]1C[C@@]2(CC=C(C)C)C(=O)C3=C(OC4C=C(O)C(=O)C=C4C3=O)[C@](CC=C(C)C)(C2=O)[C@@]1(C)CCC=C(C)C (some centres not stated) | 2.78 | 9.84 | 3.47 | 6.82 | 4.56 | 9.22 | Active | 7.72 |  | 
7 | CC(C)=CCC/C(C)=C/C[C@@H]1C[C@]2(CC=C(C)C)C(=O)[C@@](CC=C(C)C)(C(=O)C(C(=O)c3ccc(O)c(O)c3)=C2O)[C@@]1(C)CCC=C(C)C [OBLONGIFOLIN C] | 4.46 | 4.29 | 13 | 5.83 | 9.2 | 6.74 |  | 4.58 | 7.77 | 
8 | C[C@@H](Oc1cc(-c2cnn(C3CCNCC3)c2)cnc1N)c1c(Cl)ccc(F)c1Cl [CRIZOTINIB] | 7.16 |  | 3.7 |  | 7.25 |  |  |  |  | 
9 | CC(C)=CCC/C(C)=C/C[C@@H]1C[C@]2(CC=C(C)C)C(=O)[C@@](CC=C(C)C)(C(=O)C(C(=O)c3ccc(O)c(OC(=O)CCCC[C@@H]4SCC5NC(=O)NC54)c3)=C2O)[C@@]1(C)CCC=C(C)C (some centres not stated) | 11.7 | 11.3 | 14.6 | 12.7 | 12.1 | 18.2 |  | 12.2 |  | 
10 | CC(C)=CCC/C(C)=C/C[C@@H]1C[C@]2(CC=C(C)C)C(=O)[C@@](CC=C(C)C)(C(=O)C(C(=O)c3ccc(OCC(=O)O)c(OCC(=O)O)c3)=C2O)[C@@]1(C)CCC=C(C)C | > 20 | > 20 | > 20 | > 20 | > 20 | > 20 |  | > 20 |  | soluble
11 | COC(=O)COc1cc(C(=O)C2=C(O)[C@]3(CC=C(C)C)C[C@@H](C/C=C(\C)CCC=C(C)C)[C@](C)(CCC=C(C)C)[C@](CC=C(C)C)(C2=O)C3=O)ccc1OCC(=O)O | > 20 | > 20 | > 20 | > 20 | > 20 | > 20 |  | > 20 |  | soluble
12 | CC(=O)Oc1cc(C(=O)C2=C(O)[C@]3(CC=C(C)C)C[C@@H](C/C=C(\C)CCC=C(C)C)[C@](C)(CCC=C(C)C)[C@](CC=C(C)C)(C2=O)C3=O)ccc1O | 15.4 | 7.66 | > 20 | 8.97 | > 20 | 10.2 |  | 8.09 |  | 
